Measured values: the supplement of paper PMC10307832

Legend:
Experiment in all cases: relative viability (nuclei count vs DMSO), 5 days (fraction); higher = more cells survive
NCI-H23 = tested on: NCI-H23
Outline: (§1)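 Relative viability is defined as nuclei in treated wells over nuclei in vehicle wells. Duplicate plates were run and medians reported. Lung cancer cell lines in 1536-well plates were dosed by pin tool one day after seeding, with one drug or with a fixed anchor-drug dose plus five library-drug doses (not always all listed) in √10 steps, and nuclei were counted after 5 days.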

HARA = tested on: HARA
Outline: as §1

201T = tested on: 201T
Outline: as §1

NCI-H358 = tested on: NCI-H358
Outline: as §1

HCC-827 = tested on: HCC-827
Outline: as §1

SK-MES-1 = tested on: SK-MES-1
Outline: as §1

NCI-H596 = tested on: NCI-H596
Outline: as §1

SW 900 = tested on: SW 900
Outline: as §1

NCI-H1437 = tested on: NCI-H1437
Outline: as §1

NCI-H441 = tested on: NCI-H441
Outline: as §1

NCI-H1975 = tested on: NCI-H1975
Outline: as §1

COR-L 105 = tested on: COR-L 105
Outline: as §1

COR-L23 = tested on: COR-L23
Outline: as §1

HCC-15 = tested on: HCC-15
Outline: as §1

NCI-H1666 = tested on: NCI-H1666
Outline: as §1

NCI-H838 = tested on: NCI-H838
Outline: as §1

LK-2 = tested on: LK-2
Outline: as §1

NCI-H650 = tested on: NCI-H650
Outline: as §1

A-427 = tested on: A-427
Outline: as §1

EKVX = tested on: EKVX
Outline: as §1

BEN = tested on: BEN
Outline: as §1

Oc1nc(-c2ccc(C(F)(F)F)cc2)nc2c1CSCC2 [XAV939] + COc1cc2c(Oc3ccc(NC(=O)C4(C(=O)Nc5ccc(F)cc5)CC4)cc3F)ccnc2cc1OCCCN1CCOCC1 [Foretinib] (partner 0.25 µM)
relative viability (NCI-H23; first compound 0.08 µM): 1.08
relative viability (NCI-H23; first compound 0.253 µM): 0.844
relative viability (NCI-H23; first compound 0.8 µM): 0.868
relative viability (NCI-H23; first compound 2.53 µM): 0.962
relative viability (HARA; first compound 0.08 µM): 1.03
relative viability (HARA; first compound 0.253 µM): 0.79
relative viability (HARA; first compound 0.8 µM): 0.248
relative viability (HARA; first compound 2.53 µM): 0.678
relative viability (201T; first compound 0.08 µM): 0.88
relative viability (201T; first compound 0.253 µM): 0.705
relative viability (201T; first compound 0.8 µM): 0.861
relative viability (201T; first compound 2.53 µM): 0.746
relative viability (NCI-H358; first compound 0.08 µM): 0.722
relative viability (NCI-H358; first compound 0.253 µM): 0.596
relative viability (NCI-H358; first compound 0.8 µM): 0.622
relative viability (NCI-H358; first compound 2.53 µM): 0.6
relative viability (HCC-827; first compound 0.08 µM): 1.11
relative viability (HCC-827; first compound 0.253 µM): 0.996
relative viability (HCC-827; first compound 0.8 µM): 1.06
relative viability (HCC-827; first compound 2.53 µM): 0.989
relative viability (SK-MES-1; first compound 0.08 µM): 1.02
relative viability (SK-MES-1; first compound 0.253 µM): 0.841
relative viability (SK-MES-1; first compound 0.8 µM): 0.864
relative viability (SK-MES-1; first compound 2.53 µM): 0.82
relative viability (NCI-H596; first compound 0.08 µM): 0.814
relative viability (NCI-H596; first compound 0.253 µM): 0.874
relative viability (NCI-H596; first compound 0.8 µM): 0.84
relative viability (NCI-H596; first compound 2.53 µM): 0.797
relative viability (SW 900; first compound 0.08 µM): 0.848
relative viability (SW 900; first compound 0.253 µM): 0.765
relative viability (SW 900; first compound 0.8 µM): 0.767
relative viability (SW 900; first compound 2.53 µM): 0.82
relative viability (NCI-H1437; first compound 0.08 µM): 1.3
relative viability (NCI-H1437; first compound 0.253 µM): 1.18
relative viability (NCI-H1437; first compound 0.8 µM): 1.21
relative viability (NCI-H1437; first compound 2.53 µM): 0.989
relative viability (NCI-H441; first compound 0.08 µM): 1.15
relative viability (NCI-H441; first compound 0.253 µM): 0.891
relative viability (NCI-H441; first compound 0.8 µM): 1.19
relative viability (NCI-H441; first compound 2.53 µM): 1.02
relative viability (NCI-H1975; first compound 0.08 µM): 0.858
relative viability (NCI-H1975; first compound 0.253 µM): 0.696
relative viability (NCI-H1975; first compound 0.8 µM): 0.691
relative viability (NCI-H1975; first compound 2.53 µM): 0.756
relative viability (COR-L 105; first compound 0.08 µM): 1.17
relative viability (COR-L 105; first compound 0.253 µM): 1.06
relative viability (COR-L 105; first compound 0.8 µM): 1.14
relative viability (COR-L 105; first compound 2.53 µM): 0.964
relative viability (COR-L23; first compound 0.08 µM): 1.13
relative viability (COR-L23; first compound 0.253 µM): 0.96
relative viability (COR-L23; first compound 0.8 µM): 0.948
relative viability (COR-L23; first compound 2.53 µM): 0.903
relative viability (HCC-15; first compound 0.08 µM): 1.2
relative viability (HCC-15; first compound 0.253 µM): 0.984
relative viability (HCC-15; first compound 0.8 µM): 1.05
relative viability (HCC-15; first compound 2.53 µM): 0.988
relative viability (NCI-H1666; first compound 0.08 µM): 0.99
relative viability (NCI-H1666; first compound 0.253 µM): 0.919
relative viability (NCI-H1666; first compound 0.8 µM): 0.908
relative viability (NCI-H1666; first compound 2.53 µM): 0.952
relative viability (NCI-H838; first compound 0.08 µM): 1.01
relative viability (NCI-H838; first compound 0.253 µM): 0.957
relative viability (NCI-H838; first compound 0.8 µM): 0.931
relative viability (NCI-H838; first compound 2.53 µM): 0.575
relative viability (LK-2; first compound 0.08 µM): 1.96
relative viability (LK-2; first compound 0.253 µM): 1.19
relative viability (LK-2; first compound 0.8 µM): 1.08
relative viability (LK-2; first compound 2.53 µM): 1.13
relative viability (NCI-H650; first compound 0.08 µM): 1.16
relative viability (NCI-H650; first compound 0.253 µM): 0.991
relative viability (NCI-H650; first compound 0.8 µM): 1.09
relative viability (NCI-H650; first compound 2.53 µM): 0.857
relative viability (A-427; first compound 0.08 µM): 1.26
relative viability (A-427; first compound 0.253 µM): 1.07
relative viability (A-427; first compound 0.8 µM): 1.04
relative viability (A-427; first compound 2.53 µM): 0.862
relative viability (EKVX; first compound 0.08 µM): 0.876
relative viability (EKVX; first compound 0.253 µM): 0.628
relative viability (EKVX; first compound 0.8 µM): 0.675
relative viability (EKVX; first compound 2.53 µM): 0.793
relative viability (BEN; first compound 0.08 µM): 0.71
relative viability (BEN; first compound 0.253 µM): 0.631
relative viability (BEN; first compound 0.8 µM): 0.577
relative viability (BEN; first compound 2.53 µM): 0.546
